Like-named read-outs stand apart in the source and are kept apart here.
Legend:
[1] = Pharmacokinetic parameters in rhesus monkeys; format: in vivo; conditions: for individual variation of in vivo exposure / AUC(0-t) / Cmax / MRT / t1/2: 50 mg/kg; for AUC(0-t) / Cmax / MRT / t1/2: rhesus monkeys, single dose, plasma
Method: The pharmacokinetic parameters of the compound of formula (IV) and its different salt forms were studied in rhesus monkeys, and the properties of the different forms of the compounds were evaluated in detail. Four rhesus monkeys were used as test animals, half male and half female. The rhesus monkeys were administered a single dose of 50 mg/kg. Multi-crossover design was adopted to administer different drugs to test animals, and the convalescence from each cycle was three days. Blood samples (0.5 mL) were taken from the femoral vein before administration (0 h), and at 0.25 h, 0.5 h, 1 h, 2 h, 4 h, 6 h, 8 h and 24 h after administration, stored in heparinized tubes, shaken well, and centrifuged for 10 minutes at 3500 rpm to separate blood plasma. The plasma samples were stored at low temperature, LC-MS/MS was used to measure drug concentration in plasma and liver, and pharmacokinetic parameters were analyzed by WinNonlin 5.3 software.

[2] = tested on: rheumatoid arthritis patients; conditions: phase III clinical trial, cited from earlier work

Molecule | AUC(0-t) [1] | Cmax [1] | MRT [1] | t1/2 [1] | also measured
COc1nsc(NC(=O)N2C[C@H]3C[C@H](N(C)c4ncnc5[nH]ccc45)C[C@H]3C2)n1 [Compound of formula (IV), (3aR,5s,6aS)—N-(3-Methoxy-1,2,4-thiadiazol-5-yl)-5-(methyl(7H-pyrrolo[2,3-d]pyrimidin-4-yl)amino)hexahydrocyclopenta[c]pyrrol-2(1H)-carboxamide] | 41.111 ± 59.593 µg·h/mL | 6.176 ± 8.838 µg/mL | 8.8 ± 5.16 h | 6.3 ± 3.5 h | in vivo exposure ([1]; monkeys, 50 mg/kg single dose): 41111 ng/ml*h; individual variation of in vivo exposure ([1]; monkeys, 50 mg/kg single dose): relatively large individual variation
C[C@@H]1CCN(C(=O)CC#N)C[C@@H]1N(C)c1ncnc2[nH]ccc12 [tofacitinib] | – | – | – | – | efficacy compared with methotrexate ([2]; 5 mg/10 mg as a single drug): significantly better than methotrexate; efficacy in reducing the progression of internal structural damage compared with methotrexate ([2]; period of six months): slightly better than methotrexate
Citrate | 44.357 ± 45.012 µg·h/mL | 5.627 ± 4.201 µg/mL | 10.0 ± 7.6 h | 6.3 ± 5.5 h | –
COc1nsc(NC(=O)N2C[C@H]3C[C@H](N(C)c4ncnc5[nH]ccc45)C[C@H]3C2)n1 [Bisulfate, (3aR,5s,6aS)—N-(3-methoxyl-1,2,4-thiadiazol-5-yl)-5-(methyl(7H-pyrrolo[2,3-d]pyrimidin-4-yl)amino)hexahydrocyclopenta[c]pyrrole-2(1H)-carboxamide bisulfate] | – | – | – | 5.3 ± 1.6 h | AUC(0-t) ([1]; both sexes, rhesus monkey, read-out: AUC(0-t)): 63 ± 53.6 µg·h/mL; Cmax ([1]; both sexes, rhesus monkey, read-out: Cmax): 9.94 ± 5.33 µg/mL; MRT ([1]; both sexes, rhesus monkey, read-out: MRT): 6.3 ± 1.7 h; increase of in vivo exposure relative to that of the base ([1]; monkeys, 50 mg/kg single dose): 50%; individual variation of in vivo exposure ([1]; monkeys, 50 mg/kg single dose, listed as bisulfate salt): relatively small individual variation

Source: patent US9422300B2, “Bisulfate of janus kinase (JAK) inhibitor and preparation method therefor” (Jiangsu Hengrui Medicine Co., Ltd., priority 2013, dated 2016)
